One test has as its system male CFW mice. In words: Dark avoidance assay (reversal of scopolamine induced memory deficits). Type of test: in vivo. To be noted: sc, scopolamine 3.0 mg/kg sc. Here is the method: In this assay, three groups of 15 male CFW mice were used—a vehicle/vehicle control group, a scopolamine/vehicle group, and a scopolamine/drug group. Thirty minutes prior to training, the vehicle/vehicle control group received normal saline subcutaneously, and the scopolamine/vehicle and scopolamine/drug groups received scopolamine subcutaneously (3.0 mg/kg, administered as scopolamine hydrobromide). Five minutes prior to training, the vehicle/vehicle control and scopolamine/vehicle groups received distilled water and the scopolamine/drug group received the test compound in distilled water.
The training/testing apparatus consisted of a plexiglass box approximately 48 cm long, 30 cm high and tapering from 26 cm wide at the top to 3 cm wide at the bottom. The interior of the box was divided equally by a vertical barrier into a light compartment (illuminated by a 25-watt reflector lamp suspended 30 cm from the floor) and a dark compartment (covered). There was a hole at the bottom of the barrier 2.5 cm wide and 6 cm tall and a trap door which could be dropped to prevent an animal from passing between the two compartments. […]
At the end of the pretreatment interval, an animal was placed in the light chamber directly under the light fixture, facing away from the door to the dark chamber. […] The latency is seconds for each mouse was recorded.
The test day latency in seconds for each animal was recorded and the animals were then discarded.
The high degree of variability (due to season of the year, housing conditions, and handling) found in one trial passive avoidance paradigm is well known. To control for this fact, individual cutoff (CO) values were determined for each test, compensating for interest variability. […]
The results of the dark avoidance test are expressed as the number of animals per group (%) in which this scopolamine induced memory deficit is blocked as measured by an increase in the latency period.

In another test the test system is Trichophyton Rubrum. The test can be described thus: Antifungal assay (microtitration technique). Type of test: cell-based. To be noted: 120 h; Trichophyton Rubrum strain 101/85; 5 days at 30° C. The protocol: (§1) The microtiter plate is prepared as follows: The wells are each filled (2 rows/strain) with 50 μl neopeptone-dextrose broth (12-channel pipette). In addition, one row/strain is coated with 50 μl yeast-nitrogen base/well for yeasts and moulds. […] All wells are then inoculated with 150 μl standardized organism suspension (yeasts: 1×10^3 organisms/ml suspension; cutaneous fungi and moulds: 1.6×10^5 organisms/ml suspension); the total volume is 200 μl per well. There is also a growth control (inoculated, not medicated), a solvent control (inoculated, not medicated, containing solvent as in medicated rows) and a negative control (not inoculated, not medicated). Incubation for 5 days at 30° C. is followed by photometric evaluation. The obtained measurements are checked visually (macroscopically and microscopically) and corrected where necessary. Criteria for Evaluation of the Antimycotic Effect a. Photometric measurements (matrix method) b. Growth, macroscopic evaluation c. Growth, microscopic evaluation (inversion light microscope, magn. 64×).

The subject of test [1] is Trichophyton Mentagrophytes. In words: Antifungal assay (microtitration technique). Type of test: cell-based. To be noted: 120 h; Trichophyton Mentagrophytes strain 100/25; 5 days at 30° C. Here is the method: as §1
Another test relates to Trichophyton Vaginalis. The test can be described thus: Antifungal assay (microtitration technique). In kind it is cell-based. To be noted: 120 h; Trichophyton Vaginalis strain 111/216; 5 days at 30° C. The protocol:
as §1

For the next test, the system named is Candida Albicans. In words: Antifungal assay (microtitration technique). Type of test: cell-based. To be noted: 120 h; Candida Albicans strain 200/175; 5 days at 30° C. The protocol:
as §1

For a further test, the system named is Aspergillus Niger. In words: Antifungal assay (microtitration technique). Type of test: cell-based. To be noted: 120 h; Aspergillus Niger strain 500/284; 5 days at 30° C. The protocol: as §1
For the next test, the system named is Microsporum Canis. In words: Antifungal assay (microtitration technique). Type of test: cell-based. To be noted: 120 h; Microsporum Canis strain 150/353; 5 days at 30° C. The protocol:
as §1

Test [2] relates to female Swiss Webster mice. In words: TPA-induced ear edema assay. Type of test: in vivo. To be noted: 10 μg/ear topical, after about 5 hours. Here is the method:
In the TPA-induced ear edema assay, TPA (12-O-tetradecanoylphorbol-13-acetate) was dissolved in 30/70 propylene glycol/ethanol and was applied to the right ear of groups of 6 female Swiss Webster mice, which were housed together in a cage under standard conditions for 1 week prior to use with food and water ad lib, at a volume of 20 μl so that a total of 10 μg of TPA is delivered to the inner and outer surfaces of the ear. The test compound was dissolved in the vehicle and was applied to the right ear (the inner and outer surface) at a volume of 20 μl so that a total of 10 μg of the compound was delivered to the ear. After about 5 hours, the animals were sacrificed, a 4 mm diameter plug was taken from each ear and weighed. The difference between the right and left ear plug weights for each animal was determined. The antiinflammatory activity of the test compound is expressed as the mean percent change in the ear plug weight of the treated animals compared to the mean percent change in the plug weight of the control animals.

The next test concerns the target Protein kinase C. In words: Protein kinase C assay (32P incorporation into Type III histone). In kind it is biochemical, rat. To be noted: for IC50: rat brain protein kinase C, phosphatidylserine/diacylglycerol stimulated, read-out: Protein Kinase Inhibitory Activity IC50. The protocol: (see U. Kikkawa, et al., Biochemical and Biophysical Research Communications, 135, 636 (1986) and R. M. Bell, et al. “Methods in Enzymology, Hormone Action,” Part J, P.M. Conn, Ed., Academic Press, Inc., New York, N.Y. 1986, page 353). Protein kinase C enzyme extract was prepared from the brain of male Wistar rats weighing 180 to 200 g and purified by the method of U. Kikkawa, et al., ibid. 636. The purified extract was stored at −80° C., and aliquots were used in the protein kinase C assay performed by a modification of the method of R. M. Bell, et al., ibid. al 354. To perform the assay, duplicate aliquots of duplicate samples are employed. Basal or unstimulated protein kinase C, phosphatidylserine/diacylglycerol stimulated protein kinase C, and test samples are run in each assay. […] The assay tubes were allowed to warm to 25° C. and an 8 μl mixture of adenosine 5′-triphosphate (100 μM) and ^32P-adenosine triphosphate (1 to 2×10^5 counts per minute) was added to each tube for a final volume of 80 μl per tube. After 2 min, the reaction (the incorporation of phosphorous into Type III histone) was terminated by spotting the assay mixture on phosphocellulose paper. The spots are cut out of the paper and the radioactivity (counts per min) of each spot was determined in a scintillation counter.

As usually defined, the MIC is the least concentration at which growth counts as inhibited. Read a high MIC as a need for much substance. Broadly, the IC50 is the concentration needed to halve the response being measured.

Converted amounts (≈) assume the structure as drawn.

As to `CNC(=O)Oc1ccc2c(c1)[C@]1(C)CCN(C)[C@@H]1N2C` [physostigmine, reference compound], the “Percent of Animals with Scopolamine Induced Memory Deficit Reversal” value (“Percent of Animals” below) in the test on male CFW mice (Dose 0.31 mg/kg) amounted to 20%.
With `Cc1cc(C2CCCCC2)n(O)c(=O)c1` [Cyclopirox, reference compound], the minimum inhibitory concentration (MIC) is 1.95 µg/mL (≈ 9.41 µM) against Trichophyton Rubrum; 1.95 µg/mL (≈ 9.41 µM) in test [1]; 15.6 µg/mL (≈ 75.4 µM) in the test with Trichophyton Vaginalis; 1.95 µg/mL (≈ 9.41 µM) against Candida Albicans; 0.97 µg/mL (≈ 4.68 µM) in the test on Aspergillus Niger; 1.95 µg/mL (≈ 9.41 µM) in the test on Microsporum Canis.
As for `CCCCCCCCCCCCc1cccc(C(O)C(N)CO)n1` (stereo not drawn) [erythro-2-Amino-1-(6-Dodecyl-2-pyridinyl)-1,3-propanediol], in [2], the “Antiinflammatory Activity Percent Decrease in Ear Plug Weight at 10 μg/ear” value worked out at 24%. Moreover, the IC50 at Protein kinase C came to 8.5 µM.
In the case of `CCCCCCCCC#Cc1cccc(C(O)C(CO)NC(C)=O)n1` (stereo not drawn) [erythro-N-{1-[6(1-Decynyl)-2-pyridinyl]-1,3-dihydroxy 2-propanyl}acetamide], in the test on male CFW mice (Dose 3.0 mg/kg), the “Percent of Animals” value is 33%.
Turning to `Clc1ccccc1C(c1ccccc1)(c1ccccc1)n1ccnc1` [Clotrimazol, reference compound], the MIC with Trichophyton Rubrum was 0.24 µg/mL (≈ 0.696 µM); in test [1] it was 0.97 µg/mL (≈ 2.81 µM); in the test with Trichophyton Vaginalis, 62.5 µg/mL (≈ 181 µM); with Candida Albicans, 3.9 µg/mL (≈ 11.3 µM); against Aspergillus Niger, 1.95 µg/mL (≈ 5.65 µM); with Microsporum Canis, 0.06 µg/mL (≈ 0.174 µM).
In the case of `CCCCCCCCC#Cc1cccc(C(O)C(NC(C)=O)C(=O)OCC)n1` (stereo not drawn) [Ethyl erythro-2-acetamido-3-[6-(1-Decynyl)-2-pyridinyl]-3-hydroxypropionate], the “Percent of Animals” value in the test with male CFW mice (Dose 3.0 mg/kg) was found to be 27%.
As for `CCCCCCCCCCC=Cc1cccc(C(O)C(CO)NC(C)=O)n1` (stereo not drawn) [cis-erythro-N-{1-[6-(1-Dodecenyl)-2-pyridinyl]-1,3-dihydroxy-2-propanyl}acetamide], in the test on Protein kinase C (@ 100 μM), the “Protein Kinase Inhibitory Activity, percent inhibition at a single concentration” value is 66% @ 100 μM.
For the molecule `CCCCCCCCCCC#Cc1cccc(C(O)C(NC(C)=O)C(=O)OCC)n1` (stereo not drawn) [Ethyl erythro-2-acetamido-3-[6-(1-Dodecynyl)-2-pyridinyl]-3-hydroxypropionate], in test [2], the “Antiinflammatory Activity Percent Decrease in Ear Plug Weight at 10 μg/ear” value turned out to be 50%. In addition, on Protein kinase C, the IC50 was determined as 29 µM.
`CCCCCCCCCCc1cccc(C(O)C(N)CO)n1` (stereo not drawn) [threo-2-amino-1-(6-decyl)-2-pyridinyl)-1,3-propanediol] [threo-2-Amino-1-(6-Decyl-2-pyridinyl)-1,3-dihydroxypropane]: the “Antiinflammatory Activity Percent Decrease in Ear Plug Weight at 10 μg/ear” value in test [2] was found to be 30%. Also, on Protein kinase C, the IC50 worked out at 25 µM.

These data come from US6500849B1, “1-alkyl-, 1-alkenyl-, and 1-alkynylaryl-2-amino 1,3-propanediols and related compounds” (Aventis Pharmaceuticals Inc., priority 1990, dated 2002).
